Reference: patent US10167262B2, “Herbicidal substituted 3-arylpyrazoles” (FMC CORPORATION, priority 2014, dated 2019)

Legend:
Type in all cases: in vivo
[1] = test system: barnyardgrass (Echinochloa crus-galli); test: Test B flooded paddy test, plant response rating 0-100; conditions: Flood, 250 g ai/ha; scale 0 to 100 (0 no effect, 100 complete control); 13 to 15 days
Method in brief: (§1)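 Flooded 3 cm over soil; compound into paddy water; depth kept constant. Greenhouse 13–15 d.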

[2] = test system: ducksalad (Heteranthera limosa); test: as above; conditions: Flood, 250 g ai/ha; scale 0 to 100 (0 no effect, 100 complete control); 13 to 15 days
Method in brief: as §1

rice (Oryza sativa) = test: as above; conditions: Flood, 250 g ai/ha; scale 0 to 100 (0 no effect, 100 complete control); 13 to 15 days
Method in brief: as §1

[3] = test system: sedge, umbrella (small-flower umbrella sedge, Cyperus difformis); test: as above; conditions: Flood, 250 g ai/ha; scale 0 to 100 (0 no effect, 100 complete control); 13 to 15 days
Method in brief: as §1

[4] = test system: barnyardgrass (Echinochloa crus-galli); test: Test C pre-/postemergence greenhouse test, plant response rating 0-100
Method in brief: (§2)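 Formulated in solvent with surfactant, test chemicals were sprayed on seeded loam/sand pots and, concurrently, on young plants 2–18 cm tall. Evaluation: visual, versus controls, day 13–15.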

[5] = test system: oilseed rape (Brassica napus); test: as above
Method in brief: as §2

[6] = test system: waterhemp (common waterhemp, Amaranthus rudis); test: as above
Method in brief: as §2

[7] = test system: Italian ryegrass (Lolium multiflorum); test: Test E pre-/postemergence greenhouse test, plant response rating 0-100; conditions: scale 0 to 100; for Ryegrass, Italian plant response rating: Preemergence
Method in brief: (§3)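 Greenhouse response on a 0 (none) to 100 (complete control) scale, assessed 14 to 21 days post-treatment. Soil-applied preemergence on silt loam; foliar postemergence on plants 2–18 cm high.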

[8] = test system: wild poinsettia (Euphorbia heterophylla); test: as above; conditions: scale 0 to 100; for Poinsettia, Wild plant response rating: Preemergence
Method in brief: as §3

[9] = test system: waterhemp_RES2, (ALS & HPPD resistant common waterhemp, Amaranthus rudis); test: Test E postemergence greenhouse test, plant response rating 0-100; conditions: scale 0 to 100
Protocol: At the same time, plants from these crop and weed species and also waterhemp_RES1, (ALS & Triazine resistant common waterhemp, Amaranthus rudis), and waterhemp_RES2, (ALS & HPPD resistant common waterhemp, Amaranthus rudis) were planted in pots containing Redi-Earth® planting medium (Scotts Company, 14111 Scottslawn Road, Marysville, Ohio 43041) comprising spaghnum peat moss, vermiculite, wetting agent and starter nutrients were treated with postemergence applications of test chemicals formulated in the same manner. Plants ranged in height from 2 to 18 cm for postemergence treatments (1- to 4-leaf stage).
Treated plants and controls were maintained in a greenhouse for 14 to 21 days, after which time all species were compared to controls and visually evaluated. Plant response ratings, summarized in Table E, are based on a scale of 0 to 100 where 0 is no effect and 100 is complete control. A dash (-) response means no test result.

[10] = Postemergence, 125 g ai/ha, scale 0 to 100
[11] = Postemergence, 250 g ai/ha, scale 0 to 100
[12] = Postemergence, 500 g ai/ha, scale 0 to 100

O=C(c1ccccc1)c1cn(S(=O)(=O)CC(F)(F)F)nc1-c1cc(Cl)cc(Cl)c1 [Compound 3]
40: Plant response rating, Oilseed Rape ([5]; Preemergence, 62 g ai/ha)
70: Plant response rating (0 to 100), Oilseed Rape ([5]; Postemergence, 125 g ai/ha) | Plant response rating, Waterhemp_RES2 ([9]; 125 g ai/ha)
5: Plant response rating, Barnyardgrass [4, 11]
60: Plant response rating (0 to 100), Oilseed Rape ([5]; Postemergence, 62 g ai/ha) | Plant response rating, Waterhemp_RES2 ([9]; 31 g ai/ha)
0: Plant response rating, Barnyardgrass [1] | Plant response rating, Ducksalad [2] | Plant response rating, Rice (rice (Oryza sativa)) | Plant response rating, Sedge, Umbrella [3] | Plant response rating (0 to 100), Barnyardgrass ([4]; Postemergence, 62 g ai/ha) | Plant response rating, Barnyardgrass [4, 10] | Plant response rating, Barnyardgrass ([4]; Preemergence, 62 g ai/ha) | Plant response rating, Barnyardgrass ([4]; Preemergence, 125 g ai/ha) | Plant response rating, Barnyardgrass ([4]; Preemergence, 250 g ai/ha) | Plant response rating, Barnyardgrass ([4]; Preemergence, 500 g ai/ha) | Plant response rating, Ryegrass, Italian ([7]; Postemergence, 31 g ai/ha) | Plant response rating, Ryegrass, Italian ([7]; Postemergence, 62 g ai/ha) | Plant response rating, Ryegrass, Italian ([7]; Postemergence, 125 g ai/ha) | Plant response rating, Ryegrass, Italian ([7]; Postemergence, 250 g ai/ha) | Plant response rating, Ryegrass, Italian ([7]; Postemergence, 500 g ai/ha) | Ryegrass, Italian plant response rating ([7]; 31 g ai/ha) | Ryegrass, Italian plant response rating ([7]; 62 g ai/ha) | Ryegrass, Italian plant response rating ([7]; 125 g ai/ha) | Ryegrass, Italian plant response rating ([7]; 250 g ai/ha) | Ryegrass, Italian plant response rating ([7]; 500 g ai/ha) | Plant response rating, Poinsettia, Wild ([8]; Postemergence, 31 g ai/ha) | Plant response rating, Poinsettia, Wild ([8]; Postemergence, 62 g ai/ha) | Plant response rating, Poinsettia, Wild ([8]; Postemergence, 125 g ai/ha) | Poinsettia, Wild plant response rating ([8]; 125 g ai/ha) | Poinsettia, Wild plant response rating ([8]; 250 g ai/ha) | Poinsettia, Wild plant response rating ([8]; 500 g ai/ha)
15: Plant response rating, Poinsettia, Wild ([8]; Postemergence, 250 g ai/ha)
80: Plant response rating, Oilseed Rape [5, 11] | Plant response rating, Oilseed Rape ([5]; Preemergence, 125 g ai/ha) | Plant response rating, Oilseed Rape ([5]; Preemergence, 250 g ai/ha) | Plant response rating, Waterhemp_RES2 ([9]; 62 g ai/ha)
90: Plant response rating (0 to 100), Waterhemp ([6]; Postemergence, 62 g ai/ha) | Plant response rating (0 to 100), Waterhemp ([6]; Postemergence, 125 g ai/ha) | Plant response rating, Waterhemp [6, 11]
95: Plant response rating, Waterhemp [6, 12] | Plant response rating, Waterhemp_RES2 ([9]; 250 g ai/ha) | Plant response rating, Waterhemp_RES2 ([9]; 500 g ai/ha)
10: Plant response rating, Barnyardgrass [4, 12] | Plant response rating, Poinsettia, Wild ([8]; Postemergence, 500 g ai/ha)
85: Plant response rating, Oilseed Rape [5, 12]
100: Plant response rating, Oilseed Rape ([5]; Preemergence, 500 g ai/ha) | Plant response rating, Waterhemp ([6]; Preemergence, 62 g ai/ha) | Plant response rating, Waterhemp ([6]; Preemergence, 125 g ai/ha) | Plant response rating, Waterhemp ([6]; Preemergence, 250 g ai/ha) | Plant response rating, Waterhemp ([6]; Preemergence, 500 g ai/ha) | Plant response rating, Waterhemp ([6]; Preemergence, 0 to 100 scale (0 no effect, 100 complete control), rate 500 g ai/ha)

COC(OC)(c1ccccc1)c1c[nH]nc1-c1cc(Cl)cc(Cl)c1 [Compound 13, 3-(3,5-dichlorophenyl)-4-(dimethoxyphenylmethyl)-1H-pyrazole]
30: Plant response rating, Oilseed Rape ([5]; Preemergence, 250 g ai/ha)
100: Plant response rating (0 to 100), Waterhemp ([6]; Postemergence, 62 g ai/ha) | Plant response rating (0 to 100), Waterhemp ([6]; Postemergence, 125 g ai/ha) | Plant response rating, Waterhemp [6, 11] | Plant response rating, Waterhemp [6, 12] | Plant response rating, Waterhemp ([6]; Preemergence, 62 g ai/ha) | Plant response rating, Waterhemp ([6]; Preemergence, 125 g ai/ha) | Plant response rating, Waterhemp ([6]; Preemergence, 250 g ai/ha) | Plant response rating, Waterhemp ([6]; Preemergence, 500 g ai/ha)
0%: pest or weed control at 125 g/ha ([7]; Lolium multiflorum, post-emergence, Postemergence, 125 g ai/ha) | pest or weed control at 500 g/ha ([7]; Lolium multiflorum, post-emergence, Postemergence, 500 g ai/ha) | pest or weed control at 125 g/ha ([8]; Euphorbia heterophylla, post-emergence, Postemergence, 125 g ai/ha, read-out: Plant response rating, Poinsettia, Wild) | pest or weed control at 500 g/ha ([8]; Euphorbia heterophylla, post-emergence, Postemergence, 500 g ai/ha, read-out: Plant response rating, Poinsettia, Wild)
55: Plant response rating (0 to 100), Oilseed Rape ([5]; Postemergence, 125 g ai/ha)
98: Plant response rating, Oilseed Rape ([5]; Preemergence, 500 g ai/ha)
20: Plant response rating, Oilseed Rape ([5]; Preemergence, 125 g ai/ha)
70: Plant response rating, Oilseed Rape [5, 12]
95: Plant response rating, Waterhemp_RES2 ([9]; 500 g ai/ha)
0: Plant response rating, Barnyardgrass [1] | Plant response rating, Ducksalad [2] | Plant response rating, Rice (rice (Oryza sativa)) | Plant response rating, Sedge, Umbrella [3] | Plant response rating (0 to 100), Barnyardgrass ([4]; Postemergence, 62 g ai/ha) | Plant response rating, Barnyardgrass [4, 10] | Plant response rating, Barnyardgrass [4, 11] | Plant response rating, Barnyardgrass [4, 12] | Plant response rating, Barnyardgrass ([4]; Preemergence, 62 g ai/ha) | Plant response rating, Barnyardgrass ([4]; Preemergence, 125 g ai/ha) | Plant response rating, Barnyardgrass ([4]; Preemergence, 250 g ai/ha) | Plant response rating, Barnyardgrass ([4]; Preemergence, 500 g ai/ha)
75: Plant response rating, Waterhemp_RES2 ([9]; 125 g ai/ha)
50: Plant response rating, Oilseed Rape [5, 11] | Plant response rating, Oilseed Rape ([5]; Preemergence, 62 g ai/ha)
40: Plant response rating (0 to 100), Oilseed Rape ([5]; Postemergence, 62 g ai/ha)
